Values quoted from earlier work as cited in patent US20120003119A1, “ANTIMICROBIAL PEPTIDES” (priority 2007, published 2012).

Key:
[1] = combined with either magainin I or magainin II in a 1:1 molar ratio
Pseudomonas aeruginosa = conditions: tested against the bacteria Pseudomonas aeruginosa; relative to XPF
animal red blood cells = conditions: melittin isolated from bee venom

PGLa
antimicrobial activity increased [1]: 20-50 fold
times more active than XPF (Pseudomonas aeruginosa): 4-5 times

CC[C@H](C)[C@H](NC(=O)CN)C(=O)NCC(=O)N[C@@H](C)C(=O)N[C@H](C(=O)N[C@@H](CC(C)C)C(=O)N[C@@H](CCCCN)C(=O)N[C@H](C(=O)N[C@@H](CC(C)C)C(=O)N[C@H](C(=O)N[C@H](C(=O)NCC(=O)N[C@@H](CC(C)C)C(=O)N1CCC[C@H]1C(=O)N[C@@H](C)C(=O)N[C@@H](CC(C)C)C(=O)N[C@H](C(=O)N[C@@H](CO)C(=O)N[C@@H](Cc1c[nH]c2ccccc12)C(=O)N[C@H](C(=O)N[C@@H](CCCCN)C(=O)N[C@@H](CCCNC(=N)N)C(=O)N[C@@H](CCCCN)C(=O)N[C@@H](CCCNC(=N)N)C(=O)N[C@@H](CCC(N)=O)C(=O)N[C@@H](CCC(N)=O)C(N)=O)[C@@H](C)CC)[C@@H](C)CC)[C@@H](C)O)[C@@H](C)O)C(C)C)C(C)C [melittin]
lytic to both microorganisms and animal red blood cells (animal red blood cells): very lytic
